# Measurements published in patent US20070004660A1, “Synergistic Modulation of Flt3 Kinase Using Alkylquinolines and Alkylquinazolines” (priority 2005, published 2007).
# Target: T1, isolated kinase domain of the human FLT3 receptor (a.a. 571-993) (Homo sapiens, UniProt P36888)
# T1 construct: human FLT3 receptor (a.a. 571-993)
# T1 sequence (P36888 571-993): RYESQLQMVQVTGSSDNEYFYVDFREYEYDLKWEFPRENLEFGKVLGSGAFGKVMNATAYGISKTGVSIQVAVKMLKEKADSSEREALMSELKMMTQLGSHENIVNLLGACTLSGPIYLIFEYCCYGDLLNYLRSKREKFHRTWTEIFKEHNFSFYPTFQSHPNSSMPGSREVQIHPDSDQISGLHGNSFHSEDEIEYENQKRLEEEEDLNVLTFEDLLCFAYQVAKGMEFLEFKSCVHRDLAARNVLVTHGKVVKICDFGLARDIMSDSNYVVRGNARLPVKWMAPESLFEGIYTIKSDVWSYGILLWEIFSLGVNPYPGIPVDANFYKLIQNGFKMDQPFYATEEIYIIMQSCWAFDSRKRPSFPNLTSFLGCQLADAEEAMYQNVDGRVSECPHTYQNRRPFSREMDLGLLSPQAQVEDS
# Test: FLT3 fluorescence polarization kinase assay
# Format: biochemical
# Conditions: 150 uM ATP; uncertainty ±10%
row,IC50,Structure (SMILES)
1,6100 nM,"COc1cc2ncnc(C3CCN(C(=O)Nc4ccc(NC(C)=O)cc4)CC3)c2cc1OC [Example 25, 4-(6,7-Dimethoxy-quinazolin-4-yl)-piperidine-1-carboxylic acid (4-acetylamino-phenyl)-amide]"
2,28 nM,"O=C1CCCN1CCOc1cc2ncnc(C3CCN(C(=O)Nc4ccc(N5CCCC5)cc4)CC3)c2cc1F [Compound 206, 4-{6-Fluoro-7-[2-(2-oxo-pyrrolidin-1-yl)-ethoxy]-quinazolin-4-yl}-piperidine-1-carboxylic acid (4-pyrrolidin-1-yl-phenyl)-amide]"
3,17 nM,"COc1cc2c(C3CCN(C(=O)Nc4ccc(N5CCCC5)cc4)CC3)ncnc2cc1OCCN1CCCC1=O [Compound 209, 4-{6-Methoxy-7-[2-(2-oxo-pyrrolidin-1-yl)-ethoxy]-quinazolin-4-yl}-piperidine-1-carboxylic acid (4-pyrrolidin-1-yl-phenyl)-amide]"
4,150 nM,"CC(C)Oc1ccc(NC(=O)N2CCC(c3ncnc4cc(Cl)ccc34)CC2)cc1 [Example 29, 4-(7-Chloro-quinazolin-4-yl)-piperidine-1-carboxylic acid (4-isopropoxy-phenyl)-amide]"
5,18 nM,"CCN(CC)CCCOc1ccc2c(C3CCN(C(=O)Nc4ccc(OC(C)C)cc4)CC3)ncnc2c1 [Example 36, 4-[7-(3-Diethylamino-propoxy)-quinazolin-4-yl)-piperidine-1-carboxylic acid (4-isopropoxy-phenyl)-amide]"
6,6 nM,CC(C)Oc1ccc(NC(=O)N2CCC(c3ncnc4cc(OCCCN5CCOCC5)ccc34)CC2)cc1 [Example 38]
7,15 nM,CC(C)Oc1ccc(NC(=O)N2CCC(c3ncnc4cc(OCCCN5CCN(C)CC5)ccc34)CC2)cc1 [Example 39]
8,11 nM,"COc1ccc2c(C3CCN(C(=O)Nc4ccc(C(C)C)cc4)CC3)ncnc2c1 [Example 32, 4-(7-Methoxy-quinazolin-4-yl)-piperidine-1-carboxylic acid (4-isopropyl-phenyl)-amide]"
9,8 nM,"COc1cc2ncnc(C3CCN(C(=O)Cc4ccc(C(C)C)cc4)CC3)c2cc1OC [Example 28, 1-[4-(6,7-Dimethoxy-quinazolin-4-yl)-piperidin-1-yl]-2-(4-isopropyl-phenyl)-ethanone]"
10,200 nM,"COc1cc2ncnc(C3CCN(C(=O)Nc4ccc(N(C)C)cc4)CC3)c2cc1OC [Example 26, 4-(6,7-Dimethoxy-quinazolin-4-yl)-piperidine-1-carboxylic acid (4-dimethylamino-phenyl)-amide]"
11,11 nM,"CC(C)Oc1ccc(NC(=O)N2CCC(c3ncnc4cc(OCCCN5CCCCC5)ccc34)CC2)cc1 [Example 33, 4-(7-(3-Piperidin-1-yl-propoxy)-quinazolin-4-yl)-piperidine-1-carboxylic acid (4-isopropoxy-phenyl)-amide]"
12,910 nM,"COCCOc1ccc(NC(=O)N2CCC(c3ncnc4cc(OC)c(OC)cc34)CC2)cc1 [Example 40, 4-(6,7-Dimethoxy-quinazolin-4-yl)-piperidine-1-carboxylic acid [4-(2-methoxy-ethoxy)-phenyl]-amide]"
13,7 nM,CC(C)Oc1ccc(NC(=O)N2CCC(c3ncnc4cc(OCCN5CCOCC5)ccc34)CC2)cc1 [Example 37]
14,8 nM,"COc1cc2c(C3CCN(C(=O)Nc4ccc(N5CCCC5)cc4)CC3)ncnc2cc1N1CCOCC1 [Compound 211, 4-(6-Methoxy-7-morpholin-4-yl-quinazolin-4-yl)-piperidine-1-carboxylic acid (4-pyrrolidin-1-yl-phenyl)-amide]"
15,47 nM,"CCN(CC)CCOc1ccc2c(C3CCN(C(=O)Nc4ccc(OC(C)C)cc4)CC3)ncnc2c1 [Example 35, 4-[7-(2-Diethylamino-ethoxy)-quinazolin-4-yl)-piperidine-1-carboxylic acid (4-isopropoxy-phenyl)-amide]"
16,21 nM,"O=C(Nc1ccc(N2CCCC2)cc1)N1CCC(c2ncnc3cc(N4CCOCC4)c(F)cc23)CC1 [Compound 210, 4-(6-Fluoro-7-morpholin-4-yl-quinazolin-4-yl)-piperidine-1-carboxylic acid (4-pyrrolidin-1-yl-phenyl)-amide]"
17,35 nM,"CC(C)c1ccc(NC(=O)N2CCC(c3ncnc4cc(Cl)ccc34)CC2)cc1 [Example 30, 4-(7-Chloro-quinazolin-4-yl)-piperidine-1-carboxylic acid (4-isopropyl-phenyl)-amide]"
18,21 nM,"COc1ccc2c(C3CCN(C(=O)Nc4ccc(OC(C)C)cc4)CC3)ncnc2c1 [Example 31, 4-(7-Methoxy-quinazolin-4-yl)-piperidine-1-carboxylic acid (4-isopropoxy-phenyl)-amide]"
19,239 nM,"COc1cc2c(C3CCN(C(=O)Nc4ccc(N5CCOCC5)cc4)CC3)ncnc2cc1N1CCOCC1 [Compound 212, 4-(6-Methoxy-7-morpholin-4-yl-quinazolin-4-yl)-piperidine-1-carboxylic acid (4-morpholin-4-yl-phenyl)-amide]"
20,3900 nM,"COc1cc2ncnc(C3CCN(C(=O)Nc4ccc(-n5ccnc5)cc4)CC3)c2cc1OC [Example 3, 4-(6,7-Dimethoxy-quinazolin-4-yl)-piperidine-1-carboxylic acid (4-imidazol-1-yl-phenyl)-amide]"
21,210 nM,"COc1cc2ncnc(C3CCN(C(=O)Nc4ccc(I)cc4)CC3)c2cc1OC [Example 2, 4-(6,7-Dimethoxy-quinazolin-4-yl)-piperidine-1-carboxylic acid (4-iodo-phenyl)-amide]"
22,29 nM,"COc1cc2c(C3CCN(C(=O)Nc4ccc(N5CCOCC5)cc4)CC3)ncnc2cc1OCCCN1CCN(C)CC1 [Compound 207, 4-{6-Methoxy-7-[3-(4-methyl-piperazin-1-yl)-propoxy]-quinazolin-4-yl}-piperidine-1-carboxylic acid (4-morpholin-4-yl-phenyl)-amide]"
23,49 nM,"CC(C)Oc1ccc(NC(=O)N2CCC(c3ncnc4cc(OCCN5CCCCC5)ccc34)CC2)cc1 [Example 34, 4-(7-(2-Piperindin-1-yl-ethoxy)-quinazolin-4-yl)-piperidine-1-carboxylic acid (4-isopropoxy-phenyl)-amide]"

# System: Baf3-ITD cells
# Test: Cell proliferation assay, single agents and FTI/FLT3 inhibitor combinations, Baf3-ITD
# Format: cell-based, murine
# Conditions: with single sub-IC50 dose of FLT3 inhibitor Compound A, 50 nM
# Method: The cell lines that were tested included those that are dependent on FLT3ITD mutant activity for growth (MV4-11 and Baf3-FLT3ITD), FLT3wt activity for growth (Baf3FLT3) and those that grow independent of FLT3 activity (THP-1). […] Baf3-FLT3 and Baf3-FLT3ITD cell lines were obtained from Dr. Michael Henrich and the Oregon Health Sciences University. The Baf3 FLT3 cell lines were created by stable transfection of parental Baf3 cells (a murine B cell lymphoma line dependent on the cytokine IL-3 for growth) with either wild-type FLT3 or FLT3 containing the ITD insertion in the juxatamembrane domain of the receptor resulting in its constitutive activation. […]
# To statistically evaluate the synergy of a FLT3 inhibitor and an FTI in FLT3 dependent cell lines, dosing combinations were evaluated by the method of Chou and Talalay. See Chou T C, Talalay P. (1984) “Quantitative analysis of dose-effect relationships: the combined effects of multiple drugs or enzyme inhibitors.” Adv Enzyme Regul. […] Using this method, multiple FTI and FLT3 combinations were evaluated. […]
# Cell proliferation assay for MV4-11, Baf3-ITD, Baf3-FLT3 and THP-1 cells. […] Total cell growth is quantified as the difference in luminescent counts (relative light units, RLU) of cell number at Day 0 compared to total cell number at Day 3 (72 hours of growth and/or compound treatment). […]
row,Structure (SMILES),increase in potency of Tipifarnib
1,"Cn1cncc1C(N)(c1ccc(Cl)cc1)c1ccc2c(c1)c(-c1cccc(Cl)c1)cc(=O)n2C (single isomer, unassigned; (+)) [Tipifarnib, (+)-6-[amino(4-chlorophenyl)(1-methyl-1H-imidazol-5-yl)methyl]-4-(3-chlorophenyl)-1-methyl-2(1H)-quinolinone]",more than 3 fold
